Values of other authors as cited in patent US20210402001A1, “Zinc Porters, and their Monoclonal Antibody Conjugates, for the Prevention and Treatment of COVID-19 (SARS-CoV-2), Other Infections, and Cancers” (priority 2020, published 2021).

How the values were obtained:
[1] = tested on: blood platelets; conditions: healthy individuals, single oral dose of 220 mg
[2] = intranasal
[3] = oxidized HDEFA5
[4] = tested on: trypsin; conditions: reduced state, five trypsin cleavage sites

## O=S(=O)([O-])[O-].[Zn+2] [Zn sulfate]
[1]
  platelet activity: hyperactive
[2]
  loss of smell (anosmia): profound acute anosmia

## ATCYCRTGRCATRESLSGVCEISGRLYRLCCR [HDEFA5]
[3]
  Zn dissociation constant: picomolar
[4]
  degradation by gut trypsin: rapidly degraded
